Measured values: patent US20110178105A1, “CLINICAL BENEFITS OF EICOSAPENTAENOIC ACID IN HUMANS” (E.I. DU PONT DE NEMOURS AND COMPANY, priority 2010, published 2011)

Tests used:
[1] = rat; DHA TG supplementation; cited from earlier work
[2] = Clinical study in healthy subjects: body weight, BMI, blood pressure, pulse; type: in vivo, human; conditions: 6 weeks
Procedure: The goal of this study was to test the safety and efficacy of an EPA-enriched oil (as described in Examples 1-3; E.I. duPont de Nemours & Co., Inc. Applied Biosciences, Wilmington, Del.), to corroborate the safety of a novel oil rich in EPA in humans prior to this product being placed on the market as a dietary supplement. This oil was tested at doses of 600 mg and 1800 mg of EPA/day as compared […] parallel arm design in approximately 120 healthy adults studied in both the fasting and post-prandial state. Safety was monitored by assessing for adverse reactions, measuring vital signs and a variety of laboratory tests including a complete metabolic profile, thyroid function tests, complete blood count, and prothrombin time.
The objective was to carry out a double blinded, randomized, placebo-controlled trial in 120 healthy subjects between 20-70 years of age over a 6 week period comparing the effects of an EPA-enriched oil provided at daily […] Specific parameters investigated included changes in body weight, heart rate, blood pressure, complete blood count, comprehensive metabolic profile, lipid and lipoprotein measures in the fasted and fed state, fatty acid profiles, and inflammation markers.
At all visits the following information was recorded: weight in pounds and kilograms, height in centimeters [“cm”] and inches, waist circumference in cm and inches, resting heart rate, systolic blood pressure, diastolic blood pressure, and a brief dietary assessment to assure continued lack of high fish intake and/or flax seed or fish oil dietary supplements. Blood pressure and pulse measurements were done 3 times on each visit after the subjects had been sitting quietly for 5 minutes.
At the time of the enrollment visit all subjects were randomly allocated into a protocol where they were required to take two capsules three times daily which contained a either: 1) olive oil placebo; 2) 600 mg/day of EPA/day; 3) 1800 mg of EPA/day; and, […]). The EPA oils are notable for their low levels of saturated fatty acids, particularly with regard to the DHA oil. Specifically, the composition of the DHA oil was as follows (g fatty acid per 100 g of oil): 14.1 g myristic acid (14:0), 10.8 g palmitic acid (16:0), 2 g palmitoleic acid (16.1), 7.4 g margaric acid (17:0), 8.4 g oleic acid (18:1), 0.1 g EPA (20:5n3), 0.9 g DPA (22:5n6) and 37.9 g DHA (22:6n3).
At visit 2, subjects were again asked to fast for 12 hours, and information about subject characteristics including all vital signs, recent illness or hospitalization, medication and supplement use, and diet information was again obtained. […] At one week and three weeks after beginning the supplements, all study subjects were contacted by telephone and asked about any adverse effects and about their compliance, and the information on their calendars with regard to capsule use and fish intake. They were also asked about whether they had experienced any fishy aftertaste or odor, and if so, how frequent were these episodes, and how unpleasant were they? The entire process as listed above was repeated after study subjects were on the study capsules for 6 weeks at the time of the final visit. Compliance and adverse events were assessed by telephone at weeks 1 and 3 by telephone and at week 6 by questionnaire and capsule count. Over 42 days, subjects were expected to have consumed a total of 252 capsules. Compliance was calculated as a percentage of consumed capsule count/expected capsule count based on the number of days the subject was in the study. All subjects were asked to stay on their capsules until they come in for their final visit. Compliance in all participants who completed the study was based on capsule count was in excess of 85%, mean 96%.
Statistical analyses compared mean absolute and percentage changes from baseline and 6 weeks in the active groups versus the placebo group. Analysis of variance, as well as paired t-test analysis were performed with SYSTAT software. […]

Row | Compound | plasma and erythrocyte DHA content, DHA TG versus DHA EE [1] | BMI, 6-Week Change (%) ([2]; EPA 600 mg (n = 27)) | BMI, Final ([2]; EPA 600 mg (n = 27)) | Diastolic BP, Final ([2]; EPA 600 mg (n = 27)) | Pulse, 6-Week Change (%) ([2]; EPA 600 mg (n = 27)) | Pulse, Final ([2]; EPA 600 mg (n = 27)) | Systolic BP, 6-Week Change (%) ([2]; EPA 600 mg (n = 27)) | Systolic BP, Final ([2]; EPA 600 mg (n = 27)) | Weight, 6-Week Change (%) ([2]; EPA 600 mg (n = 27)) | Weight, Final ([2]; EPA 600 mg (n = 27)) | BMI, 6-Week Change (%) ([2]; EPA 1800 mg (n = 29)) | BMI, Final ([2]; EPA 1800 mg (n = 29)) | Diastolic BP, 6-Week Change (%) ([2]; EPA 1800 mg (n = 29)) | Diastolic BP, Final ([2]; EPA 1800 mg (n = 29)) | Pulse, 6-Week Change (%) ([2]; EPA 1800 mg (n = 29)) | Pulse, Final ([2]; EPA 1800 mg (n = 29)) | Systolic BP, 6-Week Change (%) ([2]; EPA 1800 mg (n = 29)) | Systolic BP, Final ([2]; EPA 1800 mg (n = 29)) | Weight, 6-Week Change (%) ([2]; EPA 1800 mg (n = 29)) | Weight, Final ([2]; EPA 1800 mg (n = 29))
1 | CCC=CCC=CCC=CCC=CCC=CC/C=C\CCC(=O)O [DHA, cis-4,7, 10, 13, 16, 19-docosahexaenoic acid, reference compound] | higher |  |  |  |  |  |  |  |  |  |  |  |  |  |  |  |  |  |  | 
2 | CCC=CCC=CCC=CCC=CC/C=C\CCCC(=O)O [EPA, cis-5,8, 11, 14, 17-eicosapentaenoic acid] |  | +0.2 ± 2.3% | 27.4 ± 3.1 kg/m^2 | 80.0 ± 7.9 mm | +2.1 ± 13.6% | 74.7 ± 12.0 beats/min | +3.0 ± 10.4% | 121.1 ± 12.2 mm Hg | +0.2 ± 2.1% | 80.4 ± 10.9 kg | +1.1 ± 5.1% | 27.9 ± 5. kg/m2 | +1.4 ± 9.1% | 77.4 ± 9.0 mm | +2.7 ± 8.6% | 70.9 ± 8.5 beats/min | +1.0 ± 7.4% | 119.9 ± 13.4 mm Hg | +1.3 ± 4.6% | 81.6 ± 19.2 kg
